# In PMC9963013 (Proceedings of the National Academy of Sciences of the …, 2023):
# Target: AtSFH5-Sec14 (Arabidopsis thaliana, UniProt Q8GXC6)
# Assay: X-ray crystal structure, […] Å
# Type: binding
# Conditions: central cavity; acyl chains switched relative to L-α-PA complex
# AtSFH5-Sec14, sequence (Q8GXC6 76-365): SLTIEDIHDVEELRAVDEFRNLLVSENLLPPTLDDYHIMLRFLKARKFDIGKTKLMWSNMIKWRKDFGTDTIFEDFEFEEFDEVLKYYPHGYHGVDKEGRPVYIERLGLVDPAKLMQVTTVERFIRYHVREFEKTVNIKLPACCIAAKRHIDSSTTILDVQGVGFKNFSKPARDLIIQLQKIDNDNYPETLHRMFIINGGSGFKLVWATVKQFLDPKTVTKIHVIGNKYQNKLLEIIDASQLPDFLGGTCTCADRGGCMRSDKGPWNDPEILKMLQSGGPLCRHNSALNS
structure (smiles),measurement,value
"CCCCCCCCCCCCCCCC(=O)OC[C@H](COP(=O)(O)O)OC(=O)CCCCCCCCCCCCCCC [DPPA, 1,2-dipalmitoyl-sn-glycero-3-phosphate]","X-ray crystal structure, 2.1 Å",7Y10 for AtSFH5-Sec14 in complex with DPPA
